Data as given in PMC7400437, “Synthesis and Evaluation of the Antibacterial Activities of 13-Substituted Berberine Derivatives” (Antibiotics, 2020).

Legend:
[1] = tested on: S.aureus (Methicillin-resistant); assay: MIC, antimicrobial activity assay; format: cell-based; details: Staphylococcus aureus, read-out: MIC S.aureus (Methicillin-resistant)
[2] = tested on: HepG2 (human liver cells); assay: Cytotoxic assay on human cells (resazurin); format: cell-based; details: HepG2, 48 h, read-out: Inhibitory Concentration 50 (IC50) on cell viability, HEPG2
In short: (§1)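 Cells grown to confluence (48–72 h) were exposed for 48 h at 37 °C to 1:2 serial dilutions from 0 to 50 µM, with 0.5% DMSO as negative control. Resazurin 1:10 in PBS++ was added for 4 h, and fluorescence was read at 530/590 nm and normalized to DMSO wells. IC50 is the concentration giving 50% viability reduction.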

[3] = tested on: Caco2 (human intestinal epithelial cells); assay: Cytotoxic assay on human cells (resazurin); format: cell-based; details: for IC50: Homo sapiens, Caco-2, 48 h, read-out: Inhibitory Concentration 50 (IC50) on cell viability, Caco2; for therapeutic index Caco2: IC50 on Caco2 divided by MIC on S. aureus
[4] = tested on: BEAS (human airway epithelial cells); assay: Cytotoxic assay on human cells (resazurin); format: cell-based; details: Epithelial cell, 48 h, means +/−SD, read-out: Inhibitory Concentration 50 (IC50) on cell viability, BEAS
In short: as §1

S. pyogenes = assay: MIC, antimicrobial activity assay; format: cell-based, Streptococcus pyogenes (DSM 20565); details: Streptococcus pyogenes; Table 4, Gram-positive; anaerobic
B. cereus = assay: MIC, antimicrobial activity assay; format: cell-based; details: Bacillus cereus; Table 4, Gram-positive
H. pylori = assay: Bacterial membrane permeabilization assay (propidium iodide); format: cell-based, Helicobacter pylori; details: for membrane permeabilization at 4-times MIC, H. pylori: 4-times their MIC; for maximal membrane permeabilization, H. pylori: 120 min exposure to 100 µM, CTAB 300 µM = 100%
Experimental: Membrane permeabilization by berberine derivatives was evaluated using the cell-impermeable DNA/RNA probe propidium iodide as previously explained. Logarithmic growing bacterial suspensions were prepared from overnight bacterial suspension by 1 in 10 dilution. After 3 h incubation at 37 °C, 200 rpm, bacterial suspensions were centrifuged for 5 min at 3000 rpm. Cell pellets were then resuspended in sterile PBS at about 10^9 cells/mL. Propidium iodide (Sigma Aldrich) was then added to the suspension at a final concentration of 60 µM. 100 µL of this suspension were then transferred into 96-well black plates (Dominique Dutscher) and exposed to increasing concentrations of berberine’s derivative (from 0 to 100 µM, 1:2 dilution). […] All steps of the assay were performed in aerobic condition except for H. pylori which was done in microaerobic condition generated with GasPak unit (Sigma Aldrich). Bacteria were incubated at 37 °C and the kinetics of fluorescence variations (excitation at 530 nm and emission at 590 nm) were then recorded over time using a Synergy Mx microplate reader (Biotek). Cetyl trimethylammonium bromide (CTAB) at 300 µM was used as positive control giving 100% permeabilization. Results were expressed in % of permeabilization. All experiments were done in triplicate.

L. lactis = assay: MIC, antimicrobial activity assay; format: cell-based, Lactococcus lactis (DSM 20481); details: Lactococcus lactis; Table 4, Gram-positive
C. perfringens = assay: microbe, parasite or virus in culture; format: cell-based, Clostridium perfringens (ATCC 13124); details: Clostridium perfringens, read-out: MIC C. perfringens
C. farmer = assay: MIC, antimicrobial activity assay; format: cell-based, Citrobacter farmeri (ATCC 51633); details: Citrobacter farmeri; Table 4, Gram-negative
[5] = tested on: DNA extracted from S. aureus; assay: DNA fragmentation assay; details: data not shown
C. albicans = assay: MIC, antifungal activity assay; format: cell-based, Candida albicans (DSM 10697); details: Candida albicans; Table 1 first screening; 35 °C, 24 h; read-out: Minimal Inhibitory Concentration (MIC) C. albicans
B. subtilis = assay: Macromolecule synthesis inhibition assay by fluorescent microscopy (morphological changes); details: 4 × MIC, 2 h, 37 °C; for Observed Morphology: DNA, B. subtilis: DAPI; for Known/Possible Target, B. subtilis: inferred from morphology
V. alginolyticus = assay: MIC, antimicrobial activity assay; format: cell-based, Vibrio alginolyticus (DSM 2171); details: Vibrio alginolyticus; Table 4, Gram-negative

Row | SMILES | MIC [1] [µM] | IC50 [2] [µM] | IC50 [3] [µM] | therapeutic index Caco2 [3] | IC50 [4] [µM] | MIC (S. pyogenes) [µM] | MIC (B. cereus) [µM] | membrane permeabilization at 4-times MIC, H. pylori (H. pylori) | maximal membrane permeabilization, H. pylori (H. pylori) | MIC (L. lactis) [µM] | MIC (C. perfringens) [µM] | MIC (C. farmer) [µM] | DNA fragmentation, S. aureus DNA [5] | MIC (C. albicans) [µM] | Observed Morphology: cell elongation/enlargement, B. subtilis (B. subtilis) | Observed Morphology: cells connected, B. subtilis (B. subtilis) | Observed Morphology: DNA, B. subtilis (B. subtilis) | Known/Possible Target, B. subtilis (B. subtilis) | MIC (V. alginolyticus) [µM] | Observed Morphology: cell membrane, B. subtilis (B. subtilis; FM4-64FX)
1 | COc1cc(C(=O)Cc2c3[n+](cc4c(OC)c(OC)ccc24)CCc2cc4c(cc2-3)OCO4)cc(OC)c1OC(=O)c1ccccc1 [Compound 16, 4-[2-(Berberin-13-yl)acetyl]-2,6-dimethoxyphenyl Benzoate] | 12.5 | > 50 | > 50 | 10.36 | > 50 | 6.25 | 12.5 | low to no membrane permeabilization | 50–60% | 6.25 to 12.5 | 25 | > 100 | failed at causing the fragmentation of DNA | > 100 | 1.5–6 times compared to control | 2–4 cells connected | 2 morphologies of DNA: • - 2 condensed DNA in each cell • - Decondensed DNA spanning the cell | Cell wall biosynthesis | 3.12 | 
2 | COc1ccc(C(=O)/C=C/c2ccc(Cc3c4[n+](cc5c(OC)c(OC)ccc35)CCc3cc5c(cc3-4)OCO5)cc2)c(O)c1 [Compound 25, (2E)-3-{4-[(Berberin-13-yl)methyl]phenyl}-1-(2-hydroxy-4-methoxyphenyl)prop-2-en-1-one] | 6.25 | > 50 | 10.5 ± 0.7 | 3.37 | 8.87 ± 1.5 | 6.25 | 6.25 | low to no membrane permeabilization | 50–60% | 1.5 to 3.12 | 25 | > 100 | failed at causing the fragmentation of DNA | 12.5 | 1–2.5 times compared to control | 2–8 cells connected | DNA condensed and cross the cells with dot like shape | RNA biosynthesis | 3.12 | Cell membrane thickening
